In patent publication US20190315823A1, “SMALL CATIONIC ANTI-BIOFILM AND IDR PEPTIDES” (priority 2013, published 2019):
Ends that are not written are not given here.

tested on: human peripheral blood mononuclear cells (MCP-1); experiment: SPOT-synthesized derivative screen: production of chemokine MCP-1; format: cell-based; details: Table 12; No LPS; human PBMC, peptide at ~18-24 μM
Procedure: Venous blood (20 ml) from healthy volunteers was collected in Vacutainer® collection tubes containing sodium heparin as an anticoagulant (Becton Dickinson, Mississauga, ON) in accordance with UBC ethical approval and guidelines. Blood was diluted 1:1 with complete RPMI 1640 medium and separated by centrifugation over a Ficoll-Paque® Plus (Amersham Biosciences, Piscataway, N.J., USA) density gradient. White blood cells were isolated from the buffy coat, washed twice in RPMI 1640 complete medium, and the number of peripheral blood mononuclear cells (PBMC) was determined by Trypan blue exclusion. PBMC (5×10^5) were seeded into 12-well tissue culture dishes (Falcon; Becton Dickinson) at 0.75 to 1×10^6 cells/ml at 37° C. in 5% CO2. The above conditions were chosen to mimic conditions for circulating blood monocytes entering tissues at the site of infection via extravasation.
Following incubation of the cells under various treatment regimens, the tissue culture supernatants were centrifuged at 1000×g for 5 min, then at 10,000×g for 2 min to obtain cell-free samples. Supernatants were aliquoted and then stored at −20° C. prior to assay for various chemokines by capture ELISA (eBioscience and BioSource International Inc., CA, USA respectively)

| Substance | Fold increase in MCP1 cf. untreated cells |
| --- | --- |
| HH2-Q1: single substituted HH2 peptide (QQLRIRVAVIRA-NH2) | 65 |
| 1002-L12: single substituted 1002 peptide (VQRWLIVWRIRL-NH2) [Peptide 1002-L12] | 4.7 |
| 1002-K11: single substituted 1002 peptide (VQRWLIVWRIKK-NH2) [Peptide 1002-K11] | 3.2 |
| 1002-V10: single substituted 1002 peptide (VQRWLIVWRVRK-NH2) [Peptide 1002-V10] | 2.3 |
| 1018-W7: single substituted 1018 peptide (VRLIVAWRIWRR-NH2) [Peptide 1018-W7] | 0.8 |
| HH2-W5: single substituted HH2 peptide (VQLRWRVAVIRA-NH2) | 14 |
| 1002-W12: single substituted 1002 peptide (VQRWLIVWRIRW-NH2) [Peptide 1002-W12] | 2.7 |
| 1002-Q3: single substituted 1002 peptide (VQQWLIVWRIRK-NH2) [Peptide 1002-Q3] | 2.4 |
| 1002-G1: single substituted 1002 peptide (GQRWLIVWRIRK-NH2) [Peptide 1002-G1] | 14.8 |
| HH2-I9: single substituted HH2 peptide (VQLRIRVAIIRA-NH2) | 50 |
| HH2-K9: single substituted HH2 peptide (VQLRIRVAKIRA-NH2) | 2.1 |
| 1002-W11: single substituted 1002 peptide (VQRWLIVWRIWK-NH2) [Peptide 1002-W11] | 0.9 |
| 1018-L5: single substituted 1018 peptide (VRLILAVRIWRR-NH2) [Peptide 1018-L5] | 3.0 |

same assay, conditions: Table 12; No LPS; human PBMC, peptide at ~18-24 μM; background subtracted 139 (HH2 derivatives), 170 (1018 derivatives), 242 (1002 and hybrid peptides) pg/ml

| Substance | MCP1 |
| --- | --- |
| HH2-Q1: single substituted HH2 peptide (QQLRIRVAVIRA-NH2) | 10838 pg/mL |
| 1002-L12: single substituted 1002 peptide (VQRWLIVWRIRL-NH2) [Peptide 1002-L12] | 905.7 pg/mL |
| 1002-K11: single substituted 1002 peptide (VQRWLIVWRIKK-NH2) [Peptide 1002-K11] | 543.3 pg/mL |
| 1002-V10: single substituted 1002 peptide (VQRWLIVWRVRK-NH2) [Peptide 1002-V10] | 308.0 pg/mL |
| 1018-W7: single substituted 1018 peptide (VRLIVAWRIWRR-NH2) [Peptide 1018-W7] | -28 pg/mL |
| HH2-W5: single substituted HH2 peptide (VQLRWRVAVIRA-NH2) | 2198 pg/mL |
| 1002-W12: single substituted 1002 peptide (VQRWLIVWRIRW-NH2) [Peptide 1002-W12] | 412.5 pg/mL |
| 1002-Q3: single substituted 1002 peptide (VQQWLIVWRIRK-NH2) [Peptide 1002-Q3] | 343.8 pg/mL |
| 1002-G1: single substituted 1002 peptide (GQRWLIVWRIRK-NH2) [Peptide 1002-G1] | 3335.7 pg/mL |
| HH2-I9: single substituted HH2 peptide (VQLRIRVAIIRA-NH2) | 8276 pg/mL |
| HH2-K9: single substituted HH2 peptide (VQLRIRVAKIRA-NH2) | 180 pg/mL |
| 1002-W11: single substituted 1002 peptide (VQRWLIVWRIWK-NH2) [Peptide 1002-W11] | -36.2 pg/mL |
| 1018-L5: single substituted 1018 peptide (VRLILAVRIWRR-NH2) [Peptide 1018-L5] | 335 pg/mL |

tested on: LPS-stimulated human peripheral blood mononuclear cells (IL1-β); experiment: not given; format: cell-based; details: Table 12; cells stimulated with 10 ng/ml LPS
Procedure: LPS from P. aeruginosa strain H103 was highly purified free of proteins and lipids using the Darveau-Hancock method. Briefly, P. aeruginosa was grown overnight in LB broth at 37° C. Cells were collected and washed and the isolated LPS pellets were extracted with a 2:1 chloroform:methanol solution to remove contaminating lipids. Purified LPS samples were quantitated using an assay for the specific sugar 2-keto-3-deoxyoctosonic acid (KDO assay) and then resuspended in endotoxin-free water (Sigma-Aldrich).

| Substance | Fold change in IL1β relative to no peptide LPS stimulated cells |
| --- | --- |
| HH2-Q1: single substituted HH2 peptide (QQLRIRVAVIRA-NH2) | 0.89 |
| 1002-L12: single substituted 1002 peptide (VQRWLIVWRIRL-NH2) [Peptide 1002-L12] | 0.05 |
| 1002-K11: single substituted 1002 peptide (VQRWLIVWRIKK-NH2) [Peptide 1002-K11] | 0.05 |
| 1002-V10: single substituted 1002 peptide (VQRWLIVWRVRK-NH2) [Peptide 1002-V10] | 0.05 |
| 1018-W7: single substituted 1018 peptide (VRLIVAWRIWRR-NH2) [Peptide 1018-W7] | 0.37 |
| HH2-W5: single substituted HH2 peptide (VQLRWRVAVIRA-NH2) | 0.77 |
| 1002-W12: single substituted 1002 peptide (VQRWLIVWRIRW-NH2) [Peptide 1002-W12] | 0.05 |
| 1002-Q3: single substituted 1002 peptide (VQQWLIVWRIRK-NH2) [Peptide 1002-Q3] | 0.05 |
| 1002-G1: single substituted 1002 peptide (GQRWLIVWRIRK-NH2) [Peptide 1002-G1] | 0.05 |
| HH2-I9: single substituted HH2 peptide (VQLRIRVAIIRA-NH2) | 0.75 |
| HH2-K9: single substituted HH2 peptide (VQLRIRVAKIRA-NH2) | 1.16 |
| 1002-W11: single substituted 1002 peptide (VQRWLIVWRIWK-NH2) [Peptide 1002-W11] | 0.05 |
| 1018-L5: single substituted 1018 peptide (VRLILAVRIWRR-NH2) [Peptide 1018-L5] | 0.12 |

same assay, conditions: Table 12; cells stimulated with 10 ng/ml LPS; LPS alone 1313 (HH2 derivatives), 1927 (1018 derivatives), 2455 (1002 and hybrid peptides) pg/ml

| Substance | IL1β Production |
| --- | --- |
| HH2-Q1: single substituted HH2 peptide (QQLRIRVAVIRA-NH2) | 1171 pg/mL |
| 1002-L12: single substituted 1002 peptide (VQRWLIVWRIRL-NH2) [Peptide 1002-L12] | 127 pg/mL |
| 1002-K11: single substituted 1002 peptide (VQRWLIVWRIKK-NH2) [Peptide 1002-K11] | 127 pg/mL |
| 1002-V10: single substituted 1002 peptide (VQRWLIVWRVRK-NH2) [Peptide 1002-V10] | 127 pg/mL |
| 1018-W7: single substituted 1018 peptide (VRLIVAWRIWRR-NH2) [Peptide 1018-W7] | 483 pg/mL |
| HH2-W5: single substituted HH2 peptide (VQLRWRVAVIRA-NH2) | 1007 pg/mL |
| 1002-W12: single substituted 1002 peptide (VQRWLIVWRIRW-NH2) [Peptide 1002-W12] | 127 pg/mL |
| 1002-Q3: single substituted 1002 peptide (VQQWLIVWRIRK-NH2) [Peptide 1002-Q3] | 127 pg/mL |
| 1002-G1: single substituted 1002 peptide (GQRWLIVWRIRK-NH2) [Peptide 1002-G1] | 127 pg/mL |
| HH2-I9: single substituted HH2 peptide (VQLRIRVAIIRA-NH2) | 980 pg/mL |
| HH2-K9: single substituted HH2 peptide (VQLRIRVAKIRA-NH2) | 1520 pg/mL |
| 1002-W11: single substituted 1002 peptide (VQRWLIVWRIWK-NH2) [Peptide 1002-W11] | 127 pg/mL |
| 1018-L5: single substituted 1018 peptide (VRLILAVRIWRR-NH2) [Peptide 1018-L5] | 162 pg/mL |

tested on: methicillin resistant Staphylococcus aureus (MRSA) biofilm; experiment: not given; details: approximate peptide concentration […] (around 3 μg/ml); compared to untreated samples
Procedure: Methods of assessment of anti-biofilm activity—Biofilm formation was initially analyzed using a static abiotic solid surface assay as described elsewhere (de la Fuente-Nunez et al., 2012). Dilutions (1/100) of overnight cultures were incubated in BM2 biofilm-adjusted medium [62 mM potassium phosphate buffer (pH 7), 7 mM (NH4)2SO4, 2 mM MgSO4, 10 μM FeSO4, 0.4% (wt/vol) glucose, 0.5% (wt/vol) Casamino Acids], or a nutrient medium such as Luria Broth, in polypropylene microtiter plates (Falcon, United States) in the absence (control) or presence of peptide. Peptide was added at time zero (prior to adding the diluted, overnight cultures) in varying concentrations, and the decrease in biofilm formation was recorded at 22-46 h for most bacteria. Planktonic cells were removed, biofilm cells adhering to the side of the tubes were stained with crystal violet, and absorbance at 595 nm was measured using a microtiter plate reader (Bio-Tek Instruments Inc., United States). Some peptides were screened against two Gram negative organisms, P. aeruginosa and K. pneumoniae using a Bioflux apparatus (AutoMate Scientific, Berkeley, Calif.; http://www.autom8.com/bioflux_biofilm.html), which allows for the high-throughput, real-time analysis of biofilms.

| Substance | % Biofilm inhibition |
| --- | --- |
| HH2-Q1: single substituted HH2 peptide (QQLRIRVAVIRA-NH2) | 57% |
| 1002-L12: single substituted 1002 peptide (VQRWLIVWRIRL-NH2) [Peptide 1002-L12] | 64% |
| 1002-K11: single substituted 1002 peptide (VQRWLIVWRIKK-NH2) [Peptide 1002-K11] | 74% |
| 1002-V10: single substituted 1002 peptide (VQRWLIVWRVRK-NH2) [Peptide 1002-V10] | 63% |
| 1018-W7: single substituted 1018 peptide (VRLIVAWRIWRR-NH2) [Peptide 1018-W7] | 55% |
| HH2-W5: single substituted HH2 peptide (VQLRWRVAVIRA-NH2) | 63% |
| 1002-W12: single substituted 1002 peptide (VQRWLIVWRIRW-NH2) [Peptide 1002-W12] | 71% |
| 1002-Q3: single substituted 1002 peptide (VQQWLIVWRIRK-NH2) [Peptide 1002-Q3] | 70% |
| 1002-G1: single substituted 1002 peptide (GQRWLIVWRIRK-NH2) [Peptide 1002-G1] | 68% |
| HH2-I9: single substituted HH2 peptide (VQLRIRVAIIRA-NH2) | 73% |
| HH2-K9: single substituted HH2 peptide (VQLRIRVAKIRA-NH2) | 52% |
| 1002-W11: single substituted 1002 peptide (VQRWLIVWRIWK-NH2) [Peptide 1002-W11] | 37% |
| 1018-L5: single substituted 1018 peptide (VRLILAVRIWRR-NH2) [Peptide 1018-L5] | 71% |
